Positions count from the first letter of the chain named.
What was measured:
[1] = tested on: 22RV1 prostate cancer cells; assay: Anti-proliferative activity against resistant 22RV1 cells expressing AR-V7; format: cell-based; details: for Activity against tumor cells expressing AR splice variants: 22RV1 cells, in words; for IC50: Homo sapiens, 22RV1 cells expressing AR-V7 splice variant, read-out: Antiproliferative activity IC50
Procedure: (§1) The cells were then digested with trypsin and counted using an automated cell counter to determine cell density. The cell suspension was diluted to the desired density in growth medium. Subsequently, 100 μL of the cell suspension was seeded into 96-well plates and incubated at 37° C. with 5% CO2 for 24 hours. 10 μL of drug solution (including 3-fold serial dilutions of compounds or DMSO) was added to each well, and the plates were incubated at 37° C. with 5% CO2 for 6 days. Prior to measurement, the assay plates were equilibrated to room temperature. 40 μL of CellTiter-Glo® reagent was added to each well. The plates were mixed on an orbital shaker for 2 minutes to induce cell lysis. After incubation at room temperature for 60 minutes to stabilize the luminescence signal, the plates were read on an Envision plate reader.
The experimental procedure was essentially the same as that for LNCaP cells.

LNCaP cells = assay: In vitro LNCaP cell proliferation inhibition test (CellTiter-Glo); format: cell-based; details: for Maximum Inhibition (%) / IC50: 6 days; for IC50: Homo sapiens, read-out: Anti-proliferative activity IC50
Procedure: as §1

AR = target: T1, AR (Homo sapiens, UniProt P10275, T878A); assay: In vitro AR degradation activity test in LNCaP cells (ELISA, OD450); format: cell-based; details: LNCaP cells, 24 hours
T1 construct: endogenous in cells; host or cells: LNCaP
T1 sequence (P10275 1-920 T878A): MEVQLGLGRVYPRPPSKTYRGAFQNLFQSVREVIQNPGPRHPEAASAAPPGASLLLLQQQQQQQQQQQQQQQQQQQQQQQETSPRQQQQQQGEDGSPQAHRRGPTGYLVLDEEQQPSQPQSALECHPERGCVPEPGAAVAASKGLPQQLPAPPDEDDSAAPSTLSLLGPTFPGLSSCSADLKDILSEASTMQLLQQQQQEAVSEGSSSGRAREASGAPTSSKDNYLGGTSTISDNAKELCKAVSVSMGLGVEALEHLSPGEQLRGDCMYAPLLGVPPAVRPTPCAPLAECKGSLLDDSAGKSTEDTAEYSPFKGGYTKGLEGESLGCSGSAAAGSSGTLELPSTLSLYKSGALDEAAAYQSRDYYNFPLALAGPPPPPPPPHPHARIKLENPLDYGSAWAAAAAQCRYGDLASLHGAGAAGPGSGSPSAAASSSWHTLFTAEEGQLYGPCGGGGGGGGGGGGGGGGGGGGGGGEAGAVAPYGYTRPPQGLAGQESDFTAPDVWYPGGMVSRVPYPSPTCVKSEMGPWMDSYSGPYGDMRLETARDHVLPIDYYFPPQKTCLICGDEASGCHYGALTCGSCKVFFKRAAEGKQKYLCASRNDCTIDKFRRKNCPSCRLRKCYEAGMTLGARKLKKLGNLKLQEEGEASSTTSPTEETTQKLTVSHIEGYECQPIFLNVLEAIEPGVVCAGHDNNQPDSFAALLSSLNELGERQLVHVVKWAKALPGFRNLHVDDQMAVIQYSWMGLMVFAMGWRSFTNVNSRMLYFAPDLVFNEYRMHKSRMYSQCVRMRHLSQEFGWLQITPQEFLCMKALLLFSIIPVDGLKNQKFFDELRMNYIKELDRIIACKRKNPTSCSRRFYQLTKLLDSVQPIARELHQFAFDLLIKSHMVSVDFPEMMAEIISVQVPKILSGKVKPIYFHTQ
Procedure: The cells were then digested with trypsin and counted using an automated cell counter. The cell suspension was diluted to the desired density in growth medium. The cell suspension was then seeded into 96-well plates at 100 μL per well, and the plates were incubated at 37° C. with 5% CO2 for 24 hours. The compounds were then diluted 200-fold to the final concentration with DMSO or 3-fold to the final concentration with culture medium. 50 μL of compound solution was transferred to the 96-well plate and incubated at 37° C. for 24 hours. After 24 hours of incubation, the cell plate was washed 3 times with DPBS, 100 μL of 1× lysis buffer was added to each well, and placed on ice for 30 minutes. The supernatant was collected. The protein in the cell lysate samples was quantified and then diluted to the required concentration. 100 μL of cell lysate sample was added to the appropriate wells, sealed with tape and pressed firmly on top of the wells, and the plate was incubated at 37° C. for 2 hours. The plate contents were then discarded, and washed 4 times with 1× wash buffer, 200 μL per well each time. 100 μL of reconstituted detection antibody was then added, the plate was sealed with tape and incubated at 37° C. for 1 hour. The aspiration/wash step was then repeated, 100 μL of reconstituted HRP-Linked secondary antibody was added to each well, the plate was sealed with tape and incubated at 37° C. for 30 minutes. The aspiration/wash step was then repeated, 100 μL of substrate solution was added to each well and incubated at 37° C. for 10 minutes, and finally 100 μL of stop solution was added to each well. The plate was gently tapped to ensure thorough mixing, and the OD450 nm was recorded.
Degradation rate (%)=(OD450_max−OD450_sample)/(OD450_max−OD450_min)×100,plotted using GraphPad Prism 5 software, and IC50 is calculated using SPSS software.

[2] = In vivo pharmacokinetics in rats after oral gavage; details: male SD rats, PO 10 mg/kg; for AUC(0-inf) / AUC(0-t) / half-life / Cmax / tmax: rat, plasma; for Cmax: read-out: Cmax; for tmax: read-out: tmax
Procedure: Male SD rats were randomly divided into 6 groups, 3 rats per group. The rats were fasted but not water-deprived for 12-14 h one day before dosing. The test samples were then dissolved in a solvent of 5% DMSO+30% PEG400+65% (0.5% MC) and administered by gavage at 10 mg/kg. Food was provided 4 h after dosing. Blood samples (0.10 mL) were collected via the orbital sinus at 0, 15, 30 min, 1, 2, 4, 6, 8, and 24 h, with EDTA-K2 as anticoagulant. Blood samples were placed on ice after collection and centrifuged to separate plasma within 30 minutes (centrifugation conditions: 5000 rpm, 10 minutes, 4° C.). 50.0 μL of plasma sample (taken from −80° C. freezer, thawed naturally at room temperature and vortexed for 30 seconds) was added to a 1.5 mL centrifuge tube, followed by addition of 500 μL internal standard solution (methanol (TEDIA, HPLC grade), acetonitrile (TEDIA, HPLC grade), formic acid (FA, ACROS ORGANICS, HPLC grade), water was laboratory-made ultrapure water (100.0 ng·mL−1)). The mixture was vortexed for 60 seconds and centrifuged for 3 minutes (centrifugal force 12000 rpm). 100 μL of the supernatant was transferred to a 96-well injection plate containing an equal volume of water, mixed by shaking, and analyzed by LC-MS/MS with an injection volume of 10 μL. The data acquisition and control system software was Analyst 1.5.1 software (Applied Biosystem). The chromatographic sample peaks were integrated automatically. The ratio of sample peak area to internal standard peak area was used as an indicator for regression with sample concentration.
The pharmacokinetic parameters of representative compounds of the present invention were tested in male SD rats after oral gavage administration at 10 mg/kg according to the above conventional method to examine the pharmacokinetic characteristics of the compounds of the present invention in rats.

TMPRSS2 = TMPRSS2 mRNA expression in A549 cells (qPCR); format: cell-based; details: 10 μM, 1 nM DHT, 48 h, Blank = 1
ACE2 = ACE2 mRNA expression in A549 cells (qPCR); format: cell-based; details: 10 μM, 1 nM DHT, 48 h, Blank = 1
wild-type AR = target: T2, wild-type AR (Homo sapiens, UniProt P10275); assay: Wild-type AR antagonist activity test (luciferase reporter in HEK293 cells); format: cell-based; details: for IC50: HEK293 cells, luciferase expression, DHT 1.5 nM, 24 hours; for AR antagonist activity, times higher than that of the control enzalutamide: ratio to enzalutamide IC50
T2 construct: expressed in transfected cells; host or cells: HEK293
T2 sequence (P10275 1-920): T1 sequence (P10275 1-920 T878A) with A878T
Procedure: HEK293 cells were cultured in DMEM containing 10% fetal bovine serum (FBS) at 37° C. with 5% CO2. The cells were then digested with trypsin and counted. A 10 μL/well transfection solution was prepared in opti-MEM containing 5 ng androgen receptor clone, 100 ng pGL4.36 vector, and 315 nL fugene. […] The diluted cell suspension was seeded into 96-well plates at 90 μL (40,000 cells/well), and the plates were incubated for 24 hours. Then, 10 μL of drug solution (including gradient diluted compounds or DMSO) was added, and the plates were incubated for 30 minutes. […] After 24 hours of incubation, 100 μL of Steady-Glo was added to each well of the plate, the plate was shaken at room temperature for 20 minutes, and read on an Envision.

Q: Which results are given for `CC(O)c1cc(C(=O)N[C@@H](C)Cn2ccc(-c3ccc(C#N)c(Cl)c3)n2)[nH]n1` (some centres unmarked) [Darolutamide, darolutamide]?
A: Activity against tumor cells expressing AR splice variants [1]: no activity; IC50 [1]: > 10000 nM

Q: With `C[C@]12CC[C@H](NC(=O)c3ccncc3)CC1=CCC1C2CC[C@]2(C)C(n3ccnc3)=CCC12` (stereo partly drawn) [Compound 17, N-((3S,10R,13S)-17-(1H-imidazol-1-yl)-10,13-dimethyl-2,3,4,7,8,9,10,11,12,13,14,15-dodecahydro-1H-cyclopenta[a]phenanthren-3-yl)isonicotinamide] as the molecule, how does the “Maximum Inhibition (%)” value (LNCaP cells) read?
A: 96.99%

Q: And the IC50 (LNCaP cells)?
A: 317 nM

Q: And the “Anti-proliferative activity, fold improvement compared to abiraterone” value (LNCaP cells; ratio to abiraterone IC50)?
A: 8.8 fold

Q: What about the DC50 (AR) of the same molecule?
A: 1980 nM

Q: What about the Kel [2] of the same molecule?
A: 0.112 h⁻¹

Q: What about the MRTPO [2] of the same molecule?
A: 15.5 h

Q: And the AUC(0-inf) [2]?
A: 65600 ng·h/mL

Q: What about the AUC(0-t) [2] of the same molecule?
A: 28800 ng·h/mL

Q: And the half-life [2]?
A: 10 h

Q: And the Cmax [2]?
A: 4500 ng/mL

Q: What about the tmax [2] of the same molecule?
A: 2 h

Q: What does the source list for `CC1(C)C(=O)N(c2ccc(C#N)c(C(F)(F)F)c2F)C(=S)N1c1ccc(CCCc2ncco2)nc1` [Proxalutamide, proxalutamide, reference compound]?
A: TMPRSS2 mRNA level (TMPRSS2): 0.608; ACE2 mRNA level (ACE2): 0.463

Q: With `CNC(=O)c1ccc(N2C(=S)N(c3cnc(C#N)c(C(F)(F)F)c3)C(=O)C23CCC3)cc1F` [Apalutamide, apalutamide] as the molecule, how does the “Activity against tumor cells expressing AR splice variants” value [1] read?
A: no activity

Q: And the IC50 [1]?
A: > 10000 nM

Q: For `CNC(=O)c1ccc(N2C(=S)N(c3ccc(C#N)c(C(F)(F)F)c3)C(=O)C2(C)C)cc1F` [Enzalutamide, enzalutamide, reference compound], which “Maximum Inhibition (%)” value (LNCaP cells) is on record?
A: 55.16%

Q: What about the “Activity against tumor cells expressing AR splice variants” value [1] of the same molecule?
A: no activity

Q: For `C[C@]12CC[C@H](NC(=O)c3ccnnc3)CC1=CCC1C2CC[C@]2(C)C(n3ccnc3)=CCC12` (some centres unmarked) [Compound 16], which “Maximum Inhibition (%)” value (LNCaP cells) is on record?
A: 92.41%

Q: And the IC50 (LNCaP cells)?
A: 382 nM

Q: What about the DC50 (AR) of the same molecule?
A: 2760 nM

Q: What about the Kel [2] of the same molecule?
A: 0.296 h⁻¹

Q: And the MRTPO [2]?
A: 6.25 h

Q: What about the AUC(0-inf) [2] of the same molecule?
A: 37500 ng·h/mL

Q: And the AUC(0-t) [2]?
A: 37400 ng·h/mL

Q: And the half-life [2]?
A: 2.36 h

Q: And the Cmax [2]?
A: 3240 ng/mL

Q: And the tmax [2]?
A: 4 h

Q: Which IC50 (wild-type AR) does the source give for `Cc1cn(C2=CCC3C4CC=C5C[C@@H](NC(=O)c6ccnnc6)CC[C@]5(C)C4CC[C@]23C)cn1` (some centres unmarked) [Compound 13] here?
A: 244 nM

Q: What about the “AR antagonist activity, times higher than that of the control enzalutamide” value (wild-type AR) of the same molecule?
A: 1.8 times

Q: What about the “Maximum Inhibition (%)” value (LNCaP cells) of the same molecule?
A: 96.97%

Q: And the IC50 (LNCaP cells)?
A: 466 nM

Q: And the “Anti-tumor activity and efficacy compared to enzalutamide” value (LNCaP cells; in words)?
A: comparable anti-tumor activity but significantly superior anti-tumor efficacy compared to enzalutamide

Q: And the DC50 (AR)?
A: 2080 nM

Q: Which IC50 (wild-type AR) does the source give for `Cc1cn(C2=CCC3C4CC=C5C[C@@H](NC(=O)c6ccc([N+](=O)[O-])cc6)CC[C@]5(C)C4CC[C@]23C)cn1` (stereo partly drawn) [Compound 34, N-((3S,10R,13S)-17-(4-methyl-1H-imidazol-1-yl)-10,13-dimethyl-2,3,4,7,8,9,10,11,12,13,14,15-dodecahydro-1H-cyclopenta[a]phenanthren-3-yl)-4-nitrobenzamide] here?
A: 70.6 nM

Q: And the “AR antagonist activity, times higher than that of the control enzalutamide” value (wild-type AR)?
A: 6.2 times

Q: And the DC50 (AR)?
A: 2600 nM
